Data: US12285407B2, “Bis-indolylmethane derivatives and uses thereof” (The University of The West Indies, priority 2018, dated 2025)

How the values were obtained:
[1] = system: clinical antibiotic resistant isolates of Enterococcus faecium; assay: Checkerboard resistance breaking by SP-BIM 13; type: cell-based; conditions: for FIC compound / Rescue concentration of SP-BIM 13: SP-BIM 13 with the labelled antibiotic; for Interpretation / Σ FIC: antibiotic + SP-BIM 13; for MIC of antibiotic only: antibiotic alone; for FIC antibiotic: combination with SP-BIM 13; for MIC of antibiotic in combination: with SP-BIM 13 at rescue concentration
MRSA HS 10132 = assay: Systemic lethal MRSA infection in mice (survival); type: in vivo; conditions: vancomycin only
Bacillus cereus = assay: Checkerboard synergy (FICI) of antibiotics with SP-BIM; type: cell-based
Klebsiella pneumoniae = assay: Adjuvant broth microdilution (antibiotic MIC with SP-BIM at 50 μg/mL); type: cell-based
Candida albicans = assay: Checkerboard synergy (FICI) of antibiotics with SP-BIM; set-up: MIC SP-BIM 13 only / MIC in combination: Antibiotic / MIC antibiotic only: unit not given beside the values
Streptococcus pneumoniae [2] = assay: Adjuvant broth microdilution (antibiotic MIC with SP-BIM at 50 μg/mL); type: cell-based; conditions: Streptococcus pneumoniae, read-out: MIC of antibiotic, No compound
Escherichia coli O157:H7 = type: cell-based; conditions: antibiotic alone, no SP-BIM
Escherichia coli = assay: microbe, parasite or virus in culture; type: cell-based; conditions: read-out: MIC of antibiotic, No compound
MRSA = assay: Adjuvant broth microdilution (antibiotic MIC with SP-BIM at 50 μg/mL); type: cell-based, Staphylococcus aureus
Streptococcus pneumoniae [3] = assay: Checkerboard synergy (FICI) of antibiotics with SP-BIM; type: cell-based
Enterococcus faecium = assay: as above; type: cell-based; conditions: Enterococcus faecium
[4] = 24 h, read-out: MIC antibiotic only
[5] = SP-BIM 13 in combination with the labelled antibiotic
[6] = antibiotic alone, SP-BIM 13 checkerboard
[7] = antibiotic in combination with SP-BIM 13
[8] = Streptococcus pneumonia (title: Streptococcus pyogenes), antibiotic + SP-BIM 9
[9] = Streptococcus pneumoniae, antibiotic + SP-BIM 13

CN[C@H](CC(C)C)C(=O)N[C@H]1C(=O)N[C@@H](CC(N)=O)C(=O)N[C@H]2C(=O)N[C@H]3C(=O)N[C@H](C(=O)N[C@H](C(=O)O)c4cc(O)cc(O)c4-c4cc3ccc4O)[C@H](O)c3ccc(c(Cl)c3)Oc3cc2cc(c3O[C@@H]2O[C@H](CO)[C@@H](O)[C@H](O)[C@H]2O[C@H]2C[C@](C)(N)[C@H](O)[C@H](C)O2)Oc2ccc(cc2Cl)[C@H]1O [Vancomycin, vancomycin]
FIC compound ([1]; E. faecium strain 23668): 0.064
Rescue concentration of SP-BIM 13 ([1]; E. faecium strain 23668): 16 µg/mL
Interpretation ([1]; E. faecium strain 23668): Synergy (Synergy: FICI≤0.5)
Σ FIC ([1]; E. faecium strain 23668): <0.10
MIC of antibiotic only ([1]; E. faecium strain 23668): 32 µg/mL
FIC antibiotic ([1]; E. faecium strain 23668): 0.031
MIC of antibiotic in combination ([1]; E. faecium strain 23668): 1 µg/mL
FIC compound ([1]; E. faecium strain 24169): 0.128
Rescue concentration of SP-BIM 13 ([1]; E. faecium strain 24169): 32 µg/mL
Interpretation ([1]; E. faecium strain 24169): Synergy (Synergy: FICI≤0.5)
Σ FIC ([1]; E. faecium strain 24169): <0.14
MIC of antibiotic only ([1]; E. faecium strain 24169): 63 µg/mL
FIC antibiotic ([1]; E. faecium strain 24169): 0.008
MIC of antibiotic in combination ([1]; E. faecium strain 24169): 0.5 µg/mL
Rescue concentration of SP-BIM 13 ([1]; E. faecium strain RC63): 63 µg/mL
Interpretation ([1]; E. faecium strain RC63): Synergy (Synergy: FICI≤0.5)
Σ FIC ([1]; E. faecium strain RC63): <0.26
MIC of antibiotic only ([1]; E. faecium strain RC63): 32 µg/mL
FIC antibiotic ([1]; E. faecium strain RC63): 0.006
MIC of antibiotic in combination ([1]; E. faecium strain RC63): 0.2 µg/mL
MIC ([1]; Enterococcus faecium, read-out: MIC of Vancomycin without SP-BIM 13): 32 to 63 µg/mL
survival rate (MRSA HS 10132): similarly high survival rate
MIC (Bacillus cereus; [4]): 2 µg/mL
FIC of SP-BIM 13 (Bacillus cereus; [5]): 0.0
Interpretation (Bacillus cereus; antibiotic + SP-BIM 13): Synergy (Synergy: FICI≤0.5)
Σ FIC (Bacillus cereus; antibiotic + SP-BIM 13): 0.1
MIC antibiotic only (Bacillus cereus; [6]): 2 µg/mL
MIC in combination, Antibiotic (Bacillus cereus; [7]): 0.25 µg/mL
FIC of antibiotic (Bacillus cereus; in combination with SP-BIM 13): 0.13
MIC of antibiotic, No Compound (Klebsiella pneumoniae; Klebsiella pneumonia, antibiotic alone, no SP-BIM): >250 µg/mL
MIC (Klebsiella pneumoniae; Klebsiella pneumoniae, read-out: MIC of antibiotic, No compound): > 250 µg/mL
MIC (Candida albicans; [4]): 16 µg/mL
MIC in combination: Antibiotic (Candida albicans; MIC of the antibiotic in combination with SP-BIM 13): 8
FIC of SP-BIM 13 (Candida albicans; [5]): 0.1
Interpretation (Candida albicans; antibiotic + SP-BIM 13): Additive (Additive: FICI>0.5-1.0)
Σ FIC (Candida albicans; antibiotic + SP-BIM 13): <0.6
FIC of antibiotic (Candida albicans; combination with SP-BIM 13): 0.5
MIC (Streptococcus pneumoniae [2]): 1 µg/mL
MIC of antibiotic, No Compound (Escherichia coli O157:H7): 250 µg/mL
MIC (Escherichia coli): 125 µg/mL
MIC (MRSA; Staphylococcus aureus, read-out: MIC of antibiotic, No compound): 4 µg/mL
MIC of antibiotic, No Compound (MRSA; antibiotic alone, Table 8 (series SP-BIMs 21-29)): 2 µg/mL
FIC of SP-BIM 9 (Streptococcus pneumoniae [3]; Streptococcus pneumonia (title: Streptococcus pyogenes), SP-BIM 9 in combination with the labelled antibiotic): 0.26
Interpretation (Streptococcus pneumoniae [3]; [8]): Synergy (Synergy: FICI≤0.5)
Σ FIC (Streptococcus pneumoniae [3]; [8]): <0.36
MIC in combination, Antibiotic (Streptococcus pneumoniae [3]; Streptococcus pneumonia (title: Streptococcus pyogenes), antibiotic in combination with SP-BIM 9): 0.2 µg/mL
FIC of antibiotic (Streptococcus pneumoniae [3]; Streptococcus pneumonia (title: Streptococcus pyogenes), in combination with SP-BIM 9): 0.10
MIC (Streptococcus pneumoniae [3]; Streptococcus pneumoniae, 24 h, read-out: MIC antibiotic only): 2 µg/mL
FIC of SP-BIM 13 (Streptococcus pneumoniae [3]; Streptococcus pneumoniae, SP-BIM 13 in combination with the labelled antibiotic): 0.1
Interpretation (Streptococcus pneumoniae [3]; [9]): Synergy (Synergy: FICI≤0.5)
Σ FIC (Streptococcus pneumoniae [3]; [9]): 0.3
MIC antibiotic only (Streptococcus pneumoniae [3]; Streptococcus pneumoniae, antibiotic alone, SP-BIM 13 checkerboard): 2 µg/mL
MIC in combination, Antibiotic (Streptococcus pneumoniae [3]; Streptococcus pneumoniae, antibiotic in combination with SP-BIM 13): 0.5 µg/mL
FIC of antibiotic (Streptococcus pneumoniae [3]; Streptococcus pneumoniae, in combination with SP-BIM 13): 0.3
MIC (Enterococcus faecium; [4]): 16 µg/mL
MIC in combination, SP-BIM 9 (Enterococcus faecium; SP-BIM 9 concentration in combination with the labelled antibiotic): 64 µg/mL
FIC of SP-BIM 9 (Enterococcus faecium; SP-BIM 9 in combination with the labelled antibiotic): 0.3
FIC of SP-BIM 13 (Enterococcus faecium; [5]): 0.5
Interpretation (Enterococcus faecium; antibiotic + SP-BIM 9): Synergy (Synergy: FICI≤0.5)
Σ FIC (Enterococcus faecium; antibiotic + SP-BIM 9): ≤0.31
Interpretation (Enterococcus faecium; antibiotic + SP-BIM 13): Additive (Additive: FICI>0.5-1.0)
Σ FIC (Enterococcus faecium; antibiotic + SP-BIM 13): <1.0
MIC antibiotic only (Enterococcus faecium; [6]): 16 µg/mL
MIC in combination, Antibiotic (Enterococcus faecium; antibiotic in combination with SP-BIM 9): 0.2 µg/mL
MIC in combination, Antibiotic (Enterococcus faecium; [7]): 8 µg/mL
FIC of antibiotic (Enterococcus faecium; in combination with SP-BIM 9): 0.013
FIC of antibiotic (Enterococcus faecium; in combination with SP-BIM 13): 0.5
